This is an account of results in patent US20110028554A1, “PHARMACEUTICAL COMPOSITIONS COMPRISING DIIODOTHYRONINE AND THEIR THERAPEUTIC USE” (UNIVERSITE JOSEPH FOURIER, priority 2007, published 2011).

In experiment [1] the test system is nuclear receptors of the thyroid hormones, TRα-1 and TRβ-1. The note with it: literature; cited from earlier work.
A further experiment deals with liver mitochondria. The experiment can be described thus: Liver mitochondrial oxygen consumption (JO2) of treated Wistar rats. It counts as in vivo. The following applies: high dosage 25 μg/100 g BW. The protocol:
All measurements were performed using mitochondria (1.0 mg mitochondrial protein/ml) incubated with various substrates: • GM: glutamate/malate (5 mM/2.5 mM) • SR: succinate/rotenone (5 mM/5 μM), • GMS: glutamate/malate/succinate (5 mM/2.5 mM/5 mM), • Palm: palmitoyl carnitine (55 μM), • Octa: octanoyl carnitine (100 μM), • TMPD/AsC: TMPD/ascorbate (0.5 mM/0.5 mM), and • TMPD/AsC/DNP: TMPD/ascorbate/DNP (0.5 mM/0.5 mM/75 μM).
JO2 was recorded in the presence of the substrate and following the addition of 1 mM ADP (adenosine diphosphate) (state 3).
The oligomycin was added to the mitochondrial suspension to determine the non-phosphorylating respiratory-rate (state 4).
(§1) The major part of the liver and the red part of each quadriceps were rinsed, and chopped into isolation medium (250 mM sucrose, 20 mM Tris-HCl and 1 mM EGTA-Tris, pH 7.4). Nuclei and cell debris were removed, by centrifugation at 800 g for 10 min. Mitochondria were then isolated from the supernatant by spinning twice at 8,000 g for 10 minutes. The mitochondrial pellet was resuspended in 0.5 ml of isolation buffer and kept on ice. Mitochondrial protein was measured by the bicinchoninic acid method (Pierce, Rockford, Ill.). The final mitochondrial suspensions were maintained on ice and were used for measurements of oxygen consumption rate and reactive oxygen species (ROS) production.
(§2) The rate of mitochondrial oxygen consumption (JO2) was measured at 30° C. in an incubation chamber with a Clark-type O2 electrode filled with 2 ml of incubation medium (125 mM KCl, 10 mM Pi-Tris, 20 mM Tris-HCl, 0.1 mM EGTA, pH 7.2). All measurements were performed using mitochondria (1.0 or 0.2 mg mitochondrial protein/ml for liver and skeletal muscle) incubated either with various substrates: glutamate/malate (5 mM/2.5 mM) and succinate (5 mM), alone or in combination, palmitoyl carnitine (55 μM) and octanoyl carnitine (100 μM). For each substrate, JO2 was recorded in the presence of the substrate alone (State 2) and following the addition of 1 mM ADP (state 3). Oligomycin (1.25 μg/mg protein) was added to the mitochondrial suspension to determine the non-phosphorylating respiratory rate (state 4). The incubation medium was constantly stirred with a built-in electromagnetic stirrer and bar flea. The efficiency of the mitochondrial oxidative phosphorylation was assessed by the state 3/state 4 ratio which measures the degree of control imposed on oxidation by phosphorylation (respiratory control ratio, RCR).

The nature of experiment [2]: Body composition (adipose tissues, skeletal muscles, brown adipose tissue) of Wistar rats. It counts as in vivo. The note with it: high dosage 25 μg/100 g BW. The text has this: (§3) At the end of the experimental period, animals were sacrificed by decapitation, in order to avoid the well-known effects of general anesthetics on mitochondrial metabolism. Blood, samples were immediately collected and plasma was frozen for subsequent determination of serum metabolites and hormones. Liver, muscles and fat depots were quickly excised and weighed. Liver median lobe was rapidly freeze-clamped. Muscles (plantaris, soleus and gastrocnemius) were frozen in isopentane precooled in liquid nitrogen. Mesenteric fat consisted, of adipose tissue surrounding the gastro-intestinal tract from the gastro-oesophageal sphincter to the end of the rectum with special care taken in distinguishing and removing the pancreas. Retroperitoneal fat pad was taken as the distinct depot behind each kidney along the lumbar muscles. Epididymal fat consisted, of adipose tissue on top of the epididymis. For subcutaneous depot measurement, a rectangular piece of skin was taken on the right side of each animal from the median line of the abdomen between the spine and the right hip to the first rib. Interscapular brown adipose tissue was removed and dissected free from adjacent muscles and white adipose tissue. The heart ventricles, the right kidney and the spleen were also excised, weighed and frozen.

A short description of experiment [3]: Growth rate (body weight) of Wistar rats with subcutaneous continuous-release pellet. Type of experiment: in vivo. The following applies: high dosage 25 μg/100 g BW. How it is done: (§4) Adult male rat bred in the animal room facilities of Laboratory of Fundamental and Applied. Bioenergetics (Wistar strain) or purchased from Charles-River Laboratories, Domaine des oncins, L'ARBRESLE France [(genetically obese normoglycemic (Zucker or Fa/Fa) or diabetic (ZDF)] were caged individually in stainless steel hanging cages and maintained in a 22° C., 50±10% relative humidity and 12 h:12 h light:dark environment. All animals were fed ad libitum with a standard rat chow (Safe A04, Villemoisson, France) and tap water. Body mass and food intake were recorded twice/thrice a week and fresh food was provided, at the same time to ensure minimal disturbance to the animals' food, behavior.
(§5) Eight-week old rats (300 g±10 g) were anesthetized by simultaneous intraperitoneal injection of diazepam 4 mg/kg and ketamine 100 mg/kg. In order to maintain body temperature during the surgery (10 min), animals were placed on a warm blanket. After interscapular shaving, a small incision of 0.5 cm of the skin allows the subcutaneous implantation of a small pellet (containing rT3 or 3′,3-T2) with a 10-gauge precision trochar. The pellets, manufactured by Innovative Research of America (Sarasota, Fla., USA) are constituted of a biodegradable matrix that effectively and continuously release the active product in the animal.
(§6) 3-5 diiodothyronine (3-5 T2) or 3-3′diiodothyronine (3-3′ T2) were used at different doses (5, 0.5, or 0.1 mg/pellet) were implanted in order to provide a continuous and constant drug delivery over 60 days (which represents 25 μg, 2.5 μg or 0.5 μg/day/100 g BW).

In the next experiment the test system is muscle mitochondria. Description: Muscle mitochondrial oxygen consumption (JO2) of treated Wistar rats. Type of experiment: in vivo. The following applies: high dosage 25 μg/100 g BW. The protocol: All measurements were performed using mitochondria (0.2 mg mitochondrial protein/ml) incubated with various substrates: • GM: glutamate/malate (5 mM/2.5 mM) • SR: succinate/rotenone (5 mM/5 μM), • GMS: glutamate/malate/succinate (5 mM/2.5 mM/5 mM), • Palm: palmitoyl carnitine (55 μM), • Octa: octanoyl carnitine (100 μM), • TMPD/AsC: TMPD/ascorbate (0.5 mM/0.5 mM), and • TMPD/AsC/DNP: TMPD/ascorbate/DNP (0.5 mM/0.5 mM/75 μM).
JO2 was recorded in the presence of the substrate and following the addition of 1 mM ADP (state 3).
The oligomycin was added to the mitochondrial suspension to determine the non-phosphorylating respiratory rate (state 4).
as §1, §2

A short description of experiment [4]: Plasmatic concentrations of glucose, triglycerides, cholesterol, FFA and HDL on the day of sacrifice. It counts as in vivo, Wistar, Zucker and ZDF rats. The note with it: non-diabetic Wistar rats, 3,3′-T2 treatment (dose not printed in FIG. 15A legend).
Description: These measurements were done on venous blood of the rats the day of the sacrifice.
as §3
Glucose and 3-hydroxybutyrate (3-HB) were measured, enzymatically and non esterified fatty acid (NEFA) by colorimetric assay (Wako Chemicals).
Triglycerides and cholesterol were measured by classical routine automate apparatus.

Experiment [5] is described as follows: Food intake of Wistar rats. The following applies: high dosage 25 μg/100 g BW. Type of experiment: in vivo. The protocol: as §4, §5, §6

For the molecule `N[C@@H](Cc1cc(I)c(Oc2ccc(O)c(I)c2)c(I)c1)C(=O)O` [T3], the “Binding to the nuclear receptors” value in experiment [1] is on record as “binds very efficiently”.

In the case of `N[C@@H](Cc1cc(I)c(Oc2cc(I)c(O)c(I)c2)c(I)c1)C(=O)O` [T4, Thyroxine], the “Binding to the nuclear receptors” value in experiment [1] is reported as “binds less efficiently”.

Turning to `N[C@@H](Cc1ccc(Oc2ccc(O)c(I)c2)c(I)c1)C(=O)O` [3,3′-T2, 3′,3-diiodothyronine], in the experiment on liver mitochondria, the “Liver mitochondrial respiratory rate, non-phosphorylating (state 4, oligomycin), vs placebo” value is “substantially higher in the low 3,5-T2 group only”. Further, the “Liver mitochondrial respiratory rate, phosphorylating condition (state 3), vs placebo” value in the experiment with liver mitochondria (all substrates) is listed as “very significant increased respiratory rate”. In addition, in experiment [2], the “Brown adipose tissue weight vs placebo” value is listed as “significantly increased”; the “Fat masses, all localizations (retroperitoneal, epididymal, mesenteric, subcutaneous) vs placebo” value is given as “significantly decreased”; the “Muscle mass / lean body mass vs placebo” value is recorded as “not affected”. Moreover, the “Growth rate (body weight gain) vs placebo” value in experiment [3] is listed as “did not show similar weight gain”. Moreover, in the experiment with muscle mitochondria, the “Muscle mitochondrial respiration, non-phosphorylating (state 4), vs placebo” value is listed as “failed to substantially affect” and the “Muscle mitochondrial respiration, phosphorylating (state 3), vs placebo” value was “failed to substantially affect”. Also, the “Plasmatic glucose at the end of the treatment” value in experiment [4] is on record as “minor changes”. Besides, the “Food intake vs placebo” value in experiment [5] is reported as “a biphasic effect was observed”.
